{
  "source": "patent US20090233917A1",
  "about": "“Stroke recovery” (priority 2006, published 2009)",
  "key": {"MCA occlusion in rats": {"system": "MCA occlusion in rats", "assay": "Functional recovery following MCA occlusion in rats, therapeutic window / time course (Examples 4, 5)", "type": "in vivo, Sprague Dawley Rats", "description": "Fifty male Sprague Dawley Rats, each weighing 300-400 g, are operated under anesthesia to create MCA occlusion as described in Example 1, and are divided into 5 groups of 10 animals each. […] One group is a control group with administration of the vehicle only at 6 hours. The animals are evaluated as described in Example 2. The experiment of Example 4 is also carried out using iroxanadine as the therapeutic agent."}, "[1]": {"system": "permanent middle cerebral artery occlusion (MCAO) in rats", "assay": "Functional recovery following permanent MCAO in rats (Example 1)", "type": "in vivo, Sprague Dawley Rats", "text": "The purpose of this study was to evaluate the efficacy of arimoclomol and iroxanadine in enhancing neurological recovery in a model of permanent middle cerebral artery occlusion (MCAO) in rats. The permanent MCAO is a well accepted and considered to be a standard animal model for studying clinical aspects of stroke. (Stroke. 1999; 30:2752-2758.)\nForty male Sprague Dawley Rats, each weighing 300-400 g, which had been housed and handled for behavioral assessment for seven (7) days prior to surgery for acclimation purposes, were operated under anesthesia to create focal cerebral infarcts by permanent occlusion of the proximal right middle cerebral artery (MCA) according to modified Tamura model. Briefly, the rats were anesthetized with 2-3% halothane in the mixture of N2O:O2 (2:1), and were maintained with 1˜1.5% halothane in the mixture of N2O:O2 (2:1). The temporalis muscle was bisected and reflected through an incision made midway between the eye and the eardrum canal. The proximal MCA was exposed through a subtemporal craniectomy without removing the zygomatic arch and without transecting the facial nerve. […] Body temperature was maintained at 37.5° C.±0.5° C. throughout the entire procedure. Cefazolin (40 mg/kg; Baxter, Lot 06014.1, Exp. January 2009) was given i.p. one day before MCAO and just after MCAO to prevent infections.\nThe rats were randomly divided into 4 groups of 10 animals each. One group was given arimoclomol, p.o., starting at one hour after the occlusion at 200 mg/kg/d once daily for 3 days, then 50 mg/kg/d once daily for a total of 29 days. The second group was given iroxanadine using the same dosing regimen as for arimoclomol. The third group is a positive control group and is given intracistemally 1 μg (at 20 μg/ml, also containing 100 μg/ml of bovine serum albumin) beta-fibroblast growth factor (bFGF) one hour and one day (i.e. two administrations) after the occlusion. The fourth group is a negative control with administration of the vehicle only.\nAnimals were evaluated preoperation (day −1), then every 7 days after the operation (7, 14, 21, and 28 days) by forelimb and hindlimb placing tests and body swing test, which are widely accepted as standard tests indicative of functional recovery after a stroke model.\nFor the forelimb placing test, the examiner held the rat close to a tabletop and scored the rat's ability to place the forelimb on the tabletop in response to whisker, visual, tactile, or proprioceptive stimulation. Similarly, for the hindlimb placing test, the examiner assessed the rat's ability to place the hindlimb on the tabletop in response to tactile and proprioceptive stimulation. Separate sub-scores were obtained for each mode of sensory input (halfpoint designations possible), and added to give total scores (for the forelimb placing test: 0=normal, 12=maximally impaired; for the hindlimb placing test: 0=normal; 6=maximally impaired).\nFor the body swing test, the rat was held approximately one inch from the base of its tail. It was then elevated to an inch above a surface of a table. The rat was held in the vertical axis, defined as no more than […] to either the left or the right side. A swing was recorded whenever the rat moved its head out of the vertical axis to either side. The rat must return to the vertical position for the next swing to be counted. Thirty (30) total swings were counted. A normal rat typically has an equal number of swings to either side. Following focal ischemia, the rat tends to swing to the contralateral (left) side.\nThe behavior was evaluated by giving the score ranging in the parentheses after each test: • Forelimb placing test (0-12), consisting of whisker tactile placing (0-2); visual placing (forward, sideways) (0-4); tactile placing (dorsal, lateral) (0-4); and proprioceptive placing (0-2); • Hindlimb placing test (0-6), consisting of tactile placing (dorsal, lateral) (0-4); and proprioceptive placing (0-2). […]"}, "[2]": {"system": "rat cortical neurons (mixed cortical cultures)", "assay": "Oxygen/glucose deprivation (OGD) of rat cortical neurons, cell death by LDH release", "type": "cell-based, Wistar rat", "conditions": "all concentrations (0.1-50 μM) except 0.2 μM; added one hour after onset of OGD", "description": "Mixed cortical cultures were prepared from E18 Wistar rat embryos (National Animal Center, Kuopio, Finland). The cortices were dissected and the tissue cut into small pieces. The cells were separated by fifteen minute incubation with DNase and papain. The cells were collected by centrifugation (1500 rpm, 5 min). The tissue was triturated with a pipette and the cells were placed on poly-L-lysine coated 48-well plates, 300,000 cells/cm2, in MEM (2 g/L glucose) supplemented with 2 mM glutamine, 0.1 μg/mL gentamicin, 10% heat-inactivated fetal bovine serum (FSB-HI) and 10% heat-inactivated horse serum (HS-HI). After 3-4 hours, the medium was changed to MEM (2 g/L glucose) and supplemented with 2 mM glutamine, 0.1 μg/mL gentamicin, 5% HS-HI. After three days in vitro, cells were transferred into medium containing MEM (2 g/L glucose) supplemented with glutamine, gentamicin and 5% each of FSB-HI and HS-HI sera. On day 6 in vitro, unwanted cell division was inhibited by adding cytosine arabinoside (10 μM final concentration) for 24 hours. […]\nAfter 24 hours, possible cell debris was removed by centrifugation (13,000 rpm, 3 min.). […] The absorbance at 340 nm was measured immediately using a 3 min. kinetic measurement protocol in Multiskan ELISA reader (Labsystems, Finland). The change in absorbance/min was determined, which is directly proportional to the released LDH (=cell death)."}, "[3]": {"conditions": "treatment from 1 h after occlusion, up to 28 days"}},
  "note": "Entries after “also recorded” stand apart in the source; their conditions may differ.",
  "data": [
    {"smiles": "[O-][n+]1cccc(/C(Cl)=N/OC[C@H](O)CN2CCCCC2)c1", "note": "[arimoclomol, N-[2-hydroxy-3-(1-piperidinyl)propoxy]-pyridine-1-oxide-3-carboximidoyl chloride]", "values": [
      {"measurement": "Body Swing Test, recovery compared to vehicle group", "setting": "MCA occlusion in rats; 200 mg/kg/d p.o., all start times", "result": "superior to the vehicle group"},
      {"measurement": "Hindlimb Placing Test, time course of recovery compared to vehicle group", "setting": "MCA occlusion in rats; 200 mg/kg/d p.o., first dose 6, 12, 24 or 48 h after occlusion", "result": "superior to the vehicle group"},
      {"measurement": "Forelimb Placing Test, recovery compared to vehicle group", "setting": "MCA occlusion in rats; 200 mg/kg/d p.o., first dose 6, 12, 24 or 48 h after occlusion, all groups", "result": "superior to the vehicle group"},
      {"measurement": "Hindlimb Placing Test, difference among treated groups", "setting": "MCA occlusion in rats; first administration 6, 12, 24, or 48 hours after occlusion", "result": "no statistical difference"},
      {"measurement": "Body Swing Test, performance after 21 days", "setting": "MCA occlusion in rats; first administration 6 hours after occlusion", "result": "continued to show improved performance"},
      {"measurement": "Forelimb Placing Test, recovery compared to other start times", "setting": "MCA occlusion in rats; first administration 6 hours after stroke", "result": "superior"},
      {"measurement": "Forelimb Placing Test, recovery", "setting": "MCA occlusion in rats; first administration 48 hours after occlusion", "result": "significant and sustained"},
      {"measurement": "Body Swing Test, recovery of 48 h group compared to 6 h group", "setting": "MCA occlusion in rats; time points up to and including 21 days after occlusion", "result": "indistinguishable"},
      {"measurement": "Infarct Volume (%)", "setting": "[1]; day 28 after permanent MCAO, percentage of intact contralateral hemispheric volume, mean ± S.E.M.", "result": "21.6 ± 3.6", "unit": "%"},
      {"measurement": "Body Swing Test, recovery compared to vehicle group", "setting": "[1]; [3]", "result": "superior to the vehicle group; also recorded: non-significant trend of enhanced recovery"},
      {"measurement": "Forelimb Placing Test, recovery compared to vehicle group", "setting": "[1]; [3]", "result": "superior to the vehicle group"},
      {"measurement": "Hindlimb Placing Test, recovery compared to vehicle group", "setting": "[1]; [3]", "result": "superior to the vehicle group"},
      {"measurement": "cytoprotection against OGD as measured by LDH release", "setting": "[2]", "result": "cytoprotective"}
    ]}
  ]
}
